From PubChem BioAssay (NCI) come the findings set out here.

Among the test systems are U251 CNS; SW-620 colon; SF-268 CNS; HS 578T breast; TK-10 renal; SK-MEL-28 melanoma; OVCAR-3 ovarian; NCI-H226 lung; MALME-3M melanoma; HCT-116 colon; CAKI-1 renal; NCI-H460 lung; ACHN renal; MDA-MB-231 breast; NCI-H522 lung; T-47D breast; IGROV1 ovarian; HOP-92 NSCLC; SF-539 CNS.
Assay in all cases: inhibition of tumour cell growth, NCI panel, 48 h

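Briefly, cells in 96-well plates were exposed to five compound concentrations for 48 h, and endpoints were estimated by linear interpolation. TGI denotes the concentration required for complete inhibition of growth.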 Some results are limits rather than exact numbers.

As to `COc1cccc(NC(=O)CC(=O)NN)c1`, the TGI in the test with U251 CNS, with SW-620 colon, in the test with SF-268 CNS, in the test with HS 578T breast, in the test with TK-10 renal and in the test on SK-MEL-28 melanoma was more than 100 µM each time. Also, the TGI in the test with OVCAR-3 ovarian, with NCI-H226 lung, with MALME-3M melanoma, in the test with HCT-116 colon, in the test on CAKI-1 renal and with NCI-H460 lung was more than 100 µM in each case. Besides, the TGI in the test with ACHN renal, in the test with MDA-MB-231 breast, with NCI-H522 lung, in the test on T-47D breast, in the test with IGROV1 ovarian and in the test with HOP-92 NSCLC was more than 100 µM throughout. Also, in the test on SF-539 CNS, the TGI is more than 100 µM.

With `Cc1ccc(C2=CC(=O)/C(=C\C(=O)c3ccc(Br)cc3)O2)c(C)c1`, the TGI in the test on U251 CNS is 43.9 µM; in the test with SF-268 CNS it was 31.5 µM; with HS 578T breast it was 61.8 µM; in the test with TK-10 renal, 15.9 µM; in the test with SK-MEL-28 melanoma it was 40.1 µM; with OVCAR-3 ovarian, 16.1 µM. Moreover, the TGI with NCI-H226 lung was determined as 30.8 µM; in the test with MALME-3M melanoma it was 21.3 µM; with HCT-116 colon, 19.8 µM; in the test on CAKI-1 renal, 9.79 µM; in the test with NCI-H460 lung, 69.2 µM; in the test on ACHN renal, 12.3 µM. Further, the TGI was found to be 26.8 µM in the test with MDA-MB-231 breast; 3.38 µM in the test on NCI-H522 lung; 43.1 µM with T-47D breast; 40.4 µM with IGROV1 ovarian; 19.4 µM in the test with HOP-92 NSCLC; 57.1 µM in the test on SF-539 CNS.

As to `CC(C)(C)OC(=O)Cn1ncn(NC(=O)Cc2ccccc2)c1=S`, the TGI with U251 CNS, with SW-620 colon, in the test with SF-268 CNS, in the test with HS 578T breast, in the test on TK-10 renal and in the test with SK-MEL-28 melanoma was more than 10 µM in each case. Moreover, the TGI in the test on OVCAR-3 ovarian, in the test with MALME-3M melanoma, in the test with HCT-116 colon, with CAKI-1 renal, with NCI-H460 lung and in the test on ACHN renal was more than 10 µM throughout. The TGI in the test on MDA-MB-231 breast, in the test on NCI-H522 lung, in the test with T-47D breast, in the test with IGROV1 ovarian, in the test with HOP-92 NSCLC and with SF-539 CNS was more than 10 µM throughout.

For `O=C(C[N+]12CN3CN(CN(C3)C1)C2)c1ccc(-c2ccccc2)cc1`, the TGI in the test with U251 CNS is 32.2 µM; with SW-620 colon, 30 µM; with SF-268 CNS it was 39.4 µM; in the test with HS 578T breast it was more than 100 µM; in the test with TK-10 renal, 47.3 µM; with SK-MEL-28 melanoma, 37 µM. In addition, the TGI in the test on OVCAR-3 ovarian is 78.6 µM; in the test on NCI-H226 lung it was 49.3 µM; in the test with MALME-3M melanoma, 39.3 µM; in the test on HCT-116 colon, 35.7 µM; in the test on CAKI-1 renal, more than 100 µM; with NCI-H460 lung, 30.9 µM. For the same molecule, the TGI in the test with ACHN renal was 52.9 µM; in the test on MDA-MB-231 breast, 34.3 µM; with NCI-H522 lung, 38.2 µM; with T-47D breast, more than 100 µM; in the test on IGROV1 ovarian, 66.5 µM; with HOP-92 NSCLC it was more than 100 µM.

On to `CN(CCN)[C@H](CSSC[C@@H](c1ccccc1O)N(C)CCN)c1ccccc1O`, for which the TGI is more than 47.8 µM with U251 CNS; more than 57.3 µM in the test with SW-620 colon; 33.7 µM in the test on SF-268 CNS; 49.9 µM with HS 578T breast; 30.7 µM with TK-10 renal; 33.5 µM in the test on SK-MEL-28 melanoma. In addition, the TGI in the test on OVCAR-3 ovarian came to 28.6 µM; in the test on NCI-H226 lung it was 35.4 µM; with MALME-3M melanoma, 33.3 µM; in the test on HCT-116 colon, 20.4 µM; in the test with CAKI-1 renal it was 25.8 µM; in the test with NCI-H460 lung it was 24.4 µM. Moreover, the TGI worked out at 22.6 µM in the test on ACHN renal; 26.5 µM in the test with MDA-MB-231 breast; 33 µM in the test on NCI-H522 lung; 48.3 µM in the test with T-47D breast; 35.6 µM in the test on HOP-92 NSCLC; 31.9 µM in the test with SF-539 CNS.

Consider `COc1ccc(-c2nc3ccccc3c(=O)[nH]2)cc1`, for which the TGI in the test with U251 CNS is more than 100 µM; with SW-620 colon, more than 100 µM; with SF-268 CNS it was more than 100 µM; in the test with HS 578T breast, 31.9 µM; in the test on TK-10 renal, more than 100 µM; in the test on SK-MEL-28 melanoma, more than 100 µM. In addition, the TGI in the test with OVCAR-3 ovarian, in the test on NCI-H226 lung, with MALME-3M melanoma, in the test with HCT-116 colon, in the test with CAKI-1 renal and in the test on MDA-MB-231 breast was more than 100 µM each time. Also, the TGI in the test on NCI-H522 lung, in the test on T-47D breast, in the test with IGROV1 ovarian, with HOP-92 NSCLC and with SF-539 CNS was more than 100 µM throughout.

For the molecule `Nc1cccc(-c2cc(=O)c3cc4c(cc3[nH]2)OCO4)c1`, the TGI with U251 CNS was 24.9 µM; in the test with SW-620 colon, more than 100 µM; with SF-268 CNS, more than 100 µM; with HS 578T breast, 6.56 µM; in the test with TK-10 renal, more than 100 µM; in the test on SK-MEL-28 melanoma it was more than 100 µM. Also, the TGI was more than 30.4 µM with NCI-H226 lung; more than 100 µM in the test with MALME-3M melanoma; 3.62 µM with HCT-116 colon; more than 100 µM in the test on CAKI-1 renal; more than 100 µM in the test with NCI-H460 lung; more than 100 µM with ACHN renal. The TGI with MDA-MB-231 breast is 8.64 µM; with NCI-H522 lung it was 0.881 µM; in the test on T-47D breast, more than 100 µM; with HOP-92 NSCLC, more than 100 µM; with SF-539 CNS it was 2.79 µM.

For the molecule `CCOC(=O)C1=C(O)CC(=O)N=C1N1CCCC1`, the TGI in the test on U251 CNS, in the test on SW-620 colon, with SF-268 CNS, with HS 578T breast, in the test on TK-10 renal and in the test with SK-MEL-28 melanoma was more than 100 µM throughout. Also, the TGI in the test on OVCAR-3 ovarian, in the test with NCI-H226 lung, with MALME-3M melanoma, in the test with HCT-116 colon, with CAKI-1 renal and with ACHN renal was more than 100 µM in each case. Further, the TGI with MDA-MB-231 breast, in the test with NCI-H522 lung, in the test on T-47D breast, in the test with IGROV1 ovarian, with HOP-92 NSCLC and in the test with SF-539 CNS was more than 100 µM each time.
